The source of these data is PubChem BioAssay (NCI).

Structures are written as SMILES. Where “and” joins values, the source holds several entries; their conditions need not be identical. Equal entries are not always repeated.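 Values below derive from 48-hour exposures of cells grown in 96-well plates, with endpoints linearly interpolated between the two concentrations bracketing the appropriate inhibition level. GI50 = concentration required for 50% inhibition of growth. TGI: total growth inhibition.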 A value given as a limit tells only on which side of the number the result lay.

Some test systems named below: SK-MEL-2 melanoma; K-562 leukemia; UO-31 renal; OVCAR-8 ovarian; IGROV1 ovarian; MDA-MB-231 breast; MDA-MB-435; OVCAR-3 ovarian; MALME-3M melanoma; UACC-62 melanoma.
Holding throughout (experiment): growth of human tumour cells (NCI), 48 h

Consider `CC/C(=C\c1ccc(N(C)C)cc1)c1ccncc1`, for which the GI50 with SK-MEL-2 melanoma was 8.51 µM; in the test with K-562 leukemia, 3.78 µM; in the test on UO-31 renal, 6.57 µM; in the test on OVCAR-8 ovarian it was 6.16 µM; with IGROV1 ovarian, 5.47 µM; in the test with MDA-MB-231 breast, 6.53 µM. Besides, the GI50 with MDA-MB-435 is 1.68 µM; in the test with OVCAR-3 ovarian, 4.13 µM; with MALME-3M melanoma, 4.52 µM; in the test with UACC-62 melanoma it was 5.04 µM. Further, the TGI is over 100 µM in the test on SK-MEL-2 melanoma; over 100 µM in the test with K-562 leukemia; over 100 µM with UO-31 renal; over 100 µM with OVCAR-8 ovarian; over 100 µM in the test with IGROV1 ovarian; 80.1 µM with MDA-MB-231 breast. Besides, the TGI in the test with MDA-MB-435 was 7.51 µM; in the test with OVCAR-3 ovarian it was 29.7 µM; with MALME-3M melanoma it was over 100 µM; with UACC-62 melanoma, over 100 µM.
For `Nc1nc(N)c2nc(CNc3ccc(C(=O)NC(CCC(=O)O)C(=O)O)cc3)cnc2n1` (stereo not given), the GI50 in the test with SK-MEL-2 melanoma is over 100 µM; in the test on K-562 leukemia it was under 0.01 µM; in the test with UO-31 renal, 0.0262 µM and < 0.01 µM; in the test on OVCAR-8 ovarian, under 0.01 µM; with IGROV1 ovarian, 0.0651 µM and < 0.01 µM; in the test with MDA-MB-231 breast it was > 23.1 µM and 6.99 µM. In addition, the GI50 in the test on MDA-MB-435 is under 0.01 µM; with OVCAR-3 ovarian, 0.0695 µM and 0.0295 µM; in the test with MALME-3M melanoma, 0.921 µM; in the test on UACC-62 melanoma it was 0.0274 µM and < 0.01 µM. Besides, the TGI with SK-MEL-2 melanoma, in the test with K-562 leukemia, in the test with UO-31 renal, with OVCAR-8 ovarian, with IGROV1 ovarian and in the test with MDA-MB-231 breast was over 100 µM in each case. The TGI in the test on MDA-MB-435, with OVCAR-3 ovarian, in the test on MALME-3M melanoma and in the test with UACC-62 melanoma was over 100 µM throughout.
In the case of `N/C(=N\O)c1cn(C2OC(CO)C(O)C2O)c2ncnc(N)c12` (stereo not given), the GI50 in the test on SK-MEL-2 melanoma was 0.128 µM; in the test with K-562 leukemia it was 0.281 µM; with UO-31 renal, 0.229 µM; in the test on OVCAR-8 ovarian it was 0.186 µM; with IGROV1 ovarian, 0.263 µM; with MDA-MB-231 breast, 0.197 µM. In addition, the GI50 in the test on MDA-MB-435 was 0.0758 µM; in the test on OVCAR-3 ovarian, 0.408 µM; in the test on MALME-3M melanoma, 0.0578 µM; in the test with UACC-62 melanoma, 0.141 µM. In addition, the TGI in the test with SK-MEL-2 melanoma was 0.4 µM; in the test on K-562 leukemia, over 100 µM; in the test with UO-31 renal, 13.4 µM; with OVCAR-8 ovarian, 2.59 µM; in the test with IGROV1 ovarian, 20.7 µM; in the test on MDA-MB-231 breast it was 18.9 µM. Also, the TGI in the test on MDA-MB-435 stood at 0.263 µM; in the test on OVCAR-3 ovarian, 9.76 µM; in the test with MALME-3M melanoma, 0.243 µM; in the test with UACC-62 melanoma it was 0.366 µM.
`Nc1nc(-c2ccccn2)c(-c2ccc3ncccc3n2)s1`: the GI50 in the test with SK-MEL-2 melanoma, with K-562 leukemia, in the test on UO-31 renal, in the test on OVCAR-8 ovarian, with IGROV1 ovarian and in the test with MDA-MB-231 breast was over 25 µM in each case. The GI50 with MDA-MB-435, with OVCAR-3 ovarian, in the test on MALME-3M melanoma and in the test with UACC-62 melanoma was over 25 µM each time. For the same compound, the TGI in the test on SK-MEL-2 melanoma, in the test with K-562 leukemia, with UO-31 renal, in the test with OVCAR-8 ovarian, in the test on IGROV1 ovarian and in the test on MDA-MB-231 breast was over 25 µM each time. Also, the TGI in the test with MDA-MB-435, in the test on OVCAR-3 ovarian, in the test on MALME-3M melanoma and in the test with UACC-62 melanoma was over 25 µM in each case.
As to `COc1cc2nc(NC3CCC3)nc(NC3CCN(C(C)C)CC3)c2cc1OC`, the GI50 in the test with SK-MEL-2 melanoma is 1.9 µM; in the test with K-562 leukemia, 0.902 µM; in the test on UO-31 renal it was 1.43 µM; in the test with OVCAR-8 ovarian, 3.97 µM; in the test on IGROV1 ovarian, 7.08 µM; with MDA-MB-231 breast, 1.84 µM. Moreover, the GI50 in the test with MDA-MB-435 is 1.77 µM; in the test with OVCAR-3 ovarian it was 4.23 µM; in the test with MALME-3M melanoma, 1.76 µM; with UACC-62 melanoma it was 1.79 µM. The TGI with SK-MEL-2 melanoma was determined as 3.79 µM; in the test on K-562 leukemia it was 10.2 µM; in the test with UO-31 renal it was 2.78 µM; in the test with OVCAR-8 ovarian, 26.2 µM; with IGROV1 ovarian, 24 µM; in the test on MDA-MB-231 breast it was 3.79 µM. In addition, the TGI was determined as 3.33 µM with MDA-MB-435, 16.6 µM in the test on OVCAR-3 ovarian, 3.23 µM in the test on MALME-3M melanoma and 3.35 µM with UACC-62 melanoma.
As to `CC(=O)Nc1ccc(S(=O)(=O)N2C(=O)CCC2C(=O)Nc2ccccc2)cc1` (stereo not given), the GI50 with SK-MEL-2 melanoma was 1.34 µM; in the test on K-562 leukemia it was 0.258 µM; with UO-31 renal, 0.55 µM; in the test with OVCAR-8 ovarian, 2.23 µM; in the test with IGROV1 ovarian, 2.32 µM; with MDA-MB-231 breast it was 1.38 µM. For the same compound, the GI50 with MDA-MB-435 is 0.582 µM; with OVCAR-3 ovarian, 1.75 µM; in the test with MALME-3M melanoma it was 3.38 µM; in the test on UACC-62 melanoma, 0.0523 µM. The TGI came to 9.05 µM in the test on SK-MEL-2 melanoma; 10.2 µM with K-562 leukemia; 16.5 µM in the test on UO-31 renal; 19 µM in the test on OVCAR-8 ovarian; 26.9 µM in the test on IGROV1 ovarian; 9.49 µM in the test with MDA-MB-231 breast. The TGI came out at 17.3 µM in the test on MDA-MB-435, 11.8 µM in the test with OVCAR-3 ovarian, 18.8 µM in the test with MALME-3M melanoma and 10.3 µM in the test on UACC-62 melanoma.
